Patent US9604989B2, “Imidazopyridazines as Akt kinase inhibitors” (Bayer Intellectual Property GmbH, priority 2011, dated 2017)

What was measured:
p-4E-BP1 at T70 = experiment: Cellular p-4E-BP1-T70 assay in KPL-4 cells; format: cell-based; settings: Homo sapiens, KPL4; KPL-4 breast tumour cell line, compound treatment 2 hours; read-out: P4EBP1-T70 median IC50
Protocol: The molecular mechanism of action was investigated in a set of experiments to assess the inhibition of the PI3K-AKT-mTOR pathway in responsive cell lines such as KPL-4 breast tumour cell line (PIK3CA^H1047R, HER2^O/E and hormone independent). The phospho-substrates of PI3K-AKT-mTOR axis were used as the read-outs to reflect pathway inhibition. Cells were seeded at 60-80% confluency per well in 96-well cell culture plates. After overnight incubation at 37° C. 5% CO2, cells were treated with compounds and vehicle at 37° C. for 2 hours. […] All measurements where at least done in duplicates and confirmed by independent repetition.

[1] = biological target: His-tagged human recombinant kinase full-length Akt2 (Homo sapiens (Human), UniProt P31751); experiment: Akt2 kinase assay (Akt2 TR-FRET assay); format: biochemical; settings: 10 μM ATP, 60 min at 22° C., read-out: Akt2 median IC50
His-tagged human recombinant kinase full-length Akt2, sequence (P31751 whole entry): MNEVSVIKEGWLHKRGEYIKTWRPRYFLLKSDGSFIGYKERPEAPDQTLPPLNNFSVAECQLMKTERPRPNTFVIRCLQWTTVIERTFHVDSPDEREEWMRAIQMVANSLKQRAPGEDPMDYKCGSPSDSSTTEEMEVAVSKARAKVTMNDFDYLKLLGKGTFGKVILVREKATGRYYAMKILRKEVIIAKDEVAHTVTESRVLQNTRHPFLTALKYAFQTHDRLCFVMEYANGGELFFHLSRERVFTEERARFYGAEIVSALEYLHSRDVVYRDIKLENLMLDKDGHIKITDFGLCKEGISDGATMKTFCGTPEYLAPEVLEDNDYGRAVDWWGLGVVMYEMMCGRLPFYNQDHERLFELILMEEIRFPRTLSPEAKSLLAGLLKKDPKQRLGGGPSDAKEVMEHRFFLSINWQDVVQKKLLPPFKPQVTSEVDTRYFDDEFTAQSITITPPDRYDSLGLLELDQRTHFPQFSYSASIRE
Description: Akt2 inhibitory activity of compounds of the present invention was quantified employing the Akt2 TR-FRET assay as described in the following paragraphs.
His-tagged human recombinant kinase full-length Akt2 expressed in insect cells and activated by PDK1 was purchased form Invitrogen (part number PV 3975). As substrate for the kinase reaction the biotinylated peptide biotin-Ahx-[sequence] (C-terminus in amide form) was used which can be purchased e.g. from the company Biosynthan GmbH (Berlin-Buch, Germany). For the assay 50 nl of a 100 fold concentrated solution of the test compound in DMSO was pipetted into a black low volume 384 well microtiter plate (Greiner Bio-One, Frickenhausen, Germany), 2 μl of a solution of Akt2 in assay buffer [50 mM TRIS/HCl pH 7.5, 5 mM MgCl2, 1 mM dithiothreitol, 0.02% (v/v) Triton X-100 (Sigma)] were added and the mixture was incubated for 15 min at 22° C. to allow pre-binding of the test compounds to the enzyme before the start of the kinase reaction. Then the kinase reaction was started by the addition of 3 μl of a solution of adenosine-tri-phosphate (ATP, 16.7 μM=>final conc. in the 5 μl assay volume is 10 μM) and substrate (1.67 μM=>final conc. in the 5 μl assay volume is 1 μM) in assay buffer and the resulting mixture was incubated for a reaction time of 60 min at 22° C. The concentration of Akt2 in the assay was adjusted depending of the activity of the enzyme lot and was chosen appropriate to have the assay in the linear range, typical enzyme concentrations were in the range of about 0.2 ng/μl (final conc. in the 5 μl assay volume). The reaction was stopped by the addition of 5 μl of a solution of HTRF detection reagents (200 nM streptavidine-XL665 [Cisbio] and 1.5 nM anti-phosho-Serine antibody [Millipore, cat. #35-001] and 0.75 nM LANCE Eu-W 1024 labeled anti-mouse IgG antibody [Perkin Elmer]) in an aqueous EDTA-solution (100 mM EDTA, 0.1% (w/v) bovine serum albumin in 50 mM HEPES/NaOH pH 7.5). The resulting mixture was incubated 1 h at 22° C. to allow the binding of the biotinylated phosphorylated peptide to the streptavidine-XL665 and the antibodies. Subsequently the amount of phosphorylated substrate was evaluated by measurement of the resonance energy transfer from the anti-mouse-IgG-Eu-Chelate to the streptavidine-XL665. Therefore, the fluorescence emissions at 620 nm and 665 nm after excitation at 350 nm was measured in a TR-FRET reader, e.g. a Rubystar (BMG Labtechnologies, Offenburg, Germany) or a Viewlux (Perkin-Elmer). The ratio of the emissions at 665 nm and at 622 nm was taken as the measure for the amount of phosphorylated substrate.

phospho-AKT at S473 = experiment: Cellular p-AKT1/2/3-S473 assay in KPL-4 cells; format: cell-based; settings: Homo sapiens, KPL4; KPL-4 breast tumour cell line, compound treatment 2 hours; read-out: pAKT-S473 median IC50
[2] = biological target: His-tagged human recombinant kinase full-length Akt1 (Homo sapiens (Human), UniProt P31749); experiment: Akt1 kinase assay (Akt1 TR-FRET assay); format: biochemical; settings: 10 μM ATP, 60 min at 22° C., read-out: Akt1 median IC50
His-tagged human recombinant kinase full-length Akt1, sequence (P31749 whole entry): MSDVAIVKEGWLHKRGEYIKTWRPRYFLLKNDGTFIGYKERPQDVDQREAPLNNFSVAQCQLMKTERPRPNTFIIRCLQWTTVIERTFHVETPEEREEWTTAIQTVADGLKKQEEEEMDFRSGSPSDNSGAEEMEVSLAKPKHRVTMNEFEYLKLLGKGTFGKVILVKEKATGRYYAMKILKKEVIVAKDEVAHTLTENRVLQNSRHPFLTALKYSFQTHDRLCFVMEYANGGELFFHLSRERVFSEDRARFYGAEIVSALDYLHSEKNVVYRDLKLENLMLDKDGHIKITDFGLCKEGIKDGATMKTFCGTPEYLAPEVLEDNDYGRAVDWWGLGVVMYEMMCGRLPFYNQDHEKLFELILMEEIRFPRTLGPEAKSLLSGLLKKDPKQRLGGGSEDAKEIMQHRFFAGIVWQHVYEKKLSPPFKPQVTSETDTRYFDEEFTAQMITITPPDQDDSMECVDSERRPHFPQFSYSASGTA
Description: Biological Assay 1.0: Akt1 Kinase Assay
Akt1 inhibitory activity of compounds of the present invention was quantified employing the Akt1 TR-FRET assay as described in the following paragraphs.
His-tagged human recombinant kinase full-length Akt1 expressed in insect cells was purchased form Invitrogen (part number PV 3599). As substrate for the kinase reaction the biotinylated peptide biotin-Ahx-[sequence] (C-terminus in amide form) was used which can be purchased e.g. from the company Biosynthan GmbH (Berlin-Buch, Germany).
For the assay 50 nl of a 100 fold concentrated solution of the test compound in DMSO was pipetted into a black low volume 384 well microtiter plate (Greiner Bio-One, Frickenhausen, Germany), 2 μl of a solution of Akt1 in assay buffer [50 mM TRIS/HCl pH 7.5, 5 mM MgCl2, 1 mM dithiothreitol, 0.02% (v/v) Triton X-100 (Sigma)] were added and the mixture was incubated for 15 min at 22° C. to allow pre-binding of the test compounds to the enzyme before the start of the kinase reaction. Then the kinase reaction was started by the addition of 3 μl of a solution of adenosine-tri-phosphate (ATP, 16.7 μM=>final conc. in the 5 μl assay volume is 10 μM) and substrate (1.67 μM=>final conc. in the 5 μl assay volume is 1 μM) in assay buffer and the resulting mixture was incubated for a reaction time of 60 min at 22° C. The concentration of Akt1 in the assay was adjusted depending of the activity of the enzyme lot and was chosen appropriate to have the assay in the linear range, typical enzyme concentrations were in the range of about 0.05 ng/μl (final conc. in the 5 μl assay volume). The reaction was stopped by the addition of 5 μl of a solution of HTRF detection reagents (200 nM streptavidine-XL665 [Cisbio] and 1.5 nM anti-phosho-Serine antibody [Millipore, cat. #35-001] and 0.75 nM LANCE Eu-W 1024 labeled anti-mouse IgG antibody [Perkin Elmer]) in an aqueous EDTA-solution (100 mM EDTA, 0.1% (w/v) bovine serum albumin in 50 mM HEPES/NaOH pH 7.5). The resulting mixture was incubated 1 h at 22° C. to allow the binding of the biotinylated phosphorylated peptide to the streptavidine-XL665 and the antibodies. Subsequently the amount of phosphorylated substrate was evaluated by measurement of the resonance energy transfer from the anti-mouse-IgG-Eu-Chelate to the streptavidine-XL665. Therefore, the fluorescence emissions at 620 nm and 665 nm after excitation at 350 nm was measured in a HTRF reader, e.g. a Rubystar (BMG Labtechnologies, Offenburg, Germany) or a Viewlux (Perkin-Elmer). The ratio of the emissions at 665 nm and at 622 nm was taken as the measure for the amount of phosphorylated substrate.

[3] = test system: MCF-7 breast tumour cell line; experiment: Tumor cell proliferation assay (CellTiter-Glo), MCF-7; format: cell-based; settings: Homo sapiens, MCF7, 72 h drug exposure, read-out: MCF-7 median IC50
[4] = test system: KPL-4 breast cancer cell line; experiment: Tumor cell proliferation assay (CellTiter-Glo), KPL-4; format: cell-based; settings: Homo sapiens, KPL4, 72 h drug exposure, read-out: KLP-4 median IC50
Protocol: Biological Assay 4.0: Tumor Cell Proliferation Assays
Compounds were tested in a cell-based assay that measures the capacity of the compounds to inhibit tumour cell proliferation following a 72 h drug exposure. Cell viability is determined using CellTiter-Glow® (CTG, Promega, cat#G7571/2/3). The CellTiter-Glo® Luminescent Cell Viability Assay is a homogeneous method to determine the number of viable cells in culture.
Detection is based on using the luciferase reaction to measure the amount of ATP from viable cells. The amount of ATP in cells correlates with cell viability. Within minutes after a loss of membrane integrity, cells lose the ability to synthesize ATP, and endogenous ATPases destroy any remaining ATP; thus the levels of ATP fall precipitously.
For each cell line assayed, cells were plated onto a separate plate for determination of fluorescence at t=0 hour and t=72 hour time points. Following overnight incubation at 37° C., chemiluminescence values for the t=0 samples were determined after adding 10 μl medium and 100 μl CTG solution according to manufacture protocol. Plates for the t=72 hour time points were treated with compounds diluted into growth medium at ten times final concentration added in 10 μL to the cell culture plate. Cells were then incubated for 72 hours at 37° C. Chemiluminescence values for the t=72 hour samples were determined. […] Experiments were controlled using a reference compound as standard.

Compound | IC50 (p-4E-BP1 at T70) [nM] | IC50 [1] [nM] | IC50 (phospho-AKT at S473) [nM] | IC50 [2] [nM] | IC50 [3] [nM] | IC50 [4] [nM]
CSc1nn2c(-c3ccccc3)c(-c3ccc(C4(N)CCC4)cc3)nc2c(C)c1C [Example 54, 1-{4-[7,8-Dimethyl-6-(methylsulfanyl)-3-phenylimidazo[1,2-b]pyridazin-2-yl]-phenyl}cyclobutanamine] | 1600 | 35 | 690 | 12 | 1800 | 740
COC(=O)c1cc(-c2cc[nH]n2)c2nc(-c3ccc(C4(N)CCC4)cc3)c(-c3ccccc3)n2n1 [Example 56, Methyl 2-[4-(1-aminocyclobutyl)phenyl]-3-phenyl-8-(1H-pyrazol-3-yl)-imidazo[1,2-b]pyridazine-6-carboxylate] | 360 | 16 | 570 | 6.6 | 1100 | 8200
CCOc1cc(C(=O)OC)nn2c(-c3ccccc3)c(-c3ccc(C4(N)CCC4)cc3)nc12 [Example 57, Methyl 2-[4-(1-aminocyclobutyl)phenyl]-8-ethoxy-3-phenylimidazo[1,2-b]pyridazine-6-carboxylate] | 1800 | 29 | 250 | 25 | 2100 | 9400
COC(=O)c1cc(-c2ncc[nH]2)c2nc(-c3ccc(C4(N)CCC4)cc3)c(-c3ccccc3)n2n1 [Example 58, Methyl 2-[4-(1-aminocyclobutyl)phenyl]-8-(1H-imidazol-2-yl)-3-phenylimidazo[1,2-b]pyridazine-6-carboxylate] | 10000 | 280 | 1000 | 110 | > 10000 | > 10000
CCOc1cc(C(N)=O)nn2c(-c3ccccc3)c(-c3ccc(C4(N)CCC4)cc3)nc12 [Example 61, 2-[4-(1-Aminocyclobutyl)phenyl]-8-ethoxy-3-phenylimidazo[1,2-b]pyridazine-6-carboxamide] | 2 | 3.7 | 0.5 | 4.1 | 56 | 33
CNC(=O)c1ccnn2c(-c3ccccc3)c(-c3ccc(C4(N)CCC4)cc3)nc12 [Example 63, 2-[4-(1-Aminocyclobutyl)phenyl]-N-methyl-3-phenylimidazo[1,2-b]pyridazine-8-carboxamide] | 0.3 | 120 | 3.8 | 46 | 760 | 1600
CNC(=O)c1cc(-c2cc[nH]n2)c2nc(-c3ccc(C4(N)CCC4)cc3)c(-c3ccccc3)n2n1 [Example 65, 2-[4-(1-Aminocyclobutyl)phenyl]-N-methyl-3-phenyl-8-(1H-pyrazol-3-yl)imidazo[1,2-b]pyridazine-6-carboxamide] | 22 | 2.6 | 1.4 | 3.1 | 280 | 470
CNC(=O)c1ccc2nc(-c3ccc(C4(N)CCC4)cc3)c(-c3ccccc3)n2n1 [Example 68, 2-[4-(1-Aminocyclobutyl)phenyl]-N-methyl-3-phenylimidazo[1,2-b]-pyridazine-6-carboxamide] | 5300 | 66 | 3.7 | 21 | 680 | 1500
NC1(c2ccc(-c3nc4c(-c5cc[nH]n5)cc(C(=O)NCCO)nn4c3-c3ccccc3)cc2)CCC1 [Example 71, 2-[4-(1-Aminocyclobutyl)phenyl]-N-(2-hydroxyethyl)-3-phenyl-8-(1H-pyrazol-3-yl)imidazo[1,2-b]pyridazine-6-carboxamide] | 10000 | 20 | 92 | 11 | 780 | 2000
COC(=O)CCc1ccnn2c(-c3ccccc3)c(-c3ccc(C4(N)CCC4)cc3)nc12 [Example 72, Methyl 3-{2-[4-(1-aminocyclobutyl)phenyl]-3-phenylimidazo[1,2-b]pyridazin-8-yl}propanoate] | 590 | 580 | 1000 | 310 | 3000 | 2200
